Experimental findings from patent publication US20060276498A1 (Wyeth, priority 2005, published 2006) are described below.

Structures are written as SMILES.

As a reminder, the IC50 is the concentration that gives 50% inhibition. A low value points to higher potency.

T1 sequence (P41279 30-398): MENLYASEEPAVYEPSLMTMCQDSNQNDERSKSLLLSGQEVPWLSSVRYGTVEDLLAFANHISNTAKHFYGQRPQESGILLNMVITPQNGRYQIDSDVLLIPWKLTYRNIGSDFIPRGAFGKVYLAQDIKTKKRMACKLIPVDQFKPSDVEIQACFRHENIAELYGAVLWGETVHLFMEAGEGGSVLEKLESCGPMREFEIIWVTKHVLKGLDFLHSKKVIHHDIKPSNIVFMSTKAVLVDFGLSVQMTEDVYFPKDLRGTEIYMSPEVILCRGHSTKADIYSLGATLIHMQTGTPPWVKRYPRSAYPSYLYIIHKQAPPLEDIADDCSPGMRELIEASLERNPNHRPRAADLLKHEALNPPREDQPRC

The experiment has as its target T1, human Cot/Tpl2 kinase (Homo sapiens, UniProt P41279).
T1 construct: human Cot/Tpl2 kinase construct encoding residues 30-398; 6His (N); made in house; host or cells: Sf9 insect cells (baculovirus system, BD Biosciences)
Briefly: Tpl2/Cot kinase assay, GST-MEK1 phosphorylation detected by ELISA (DELFIA Eu). It counts as biochemical. As to conditions: Table 1; 0.4 nM Tpl2, 35 nM GST-MEK1, 50 uM ATP, 1 h at 30° C. As to the method:
Sf9 cells expressing the kinase were lysed in 50 mM NaPhosphate pH=8; 300 mM NaCl; 5 mM imidazole; 0.1 mM EGTA; 25 mM beta-glycerophosphate; 1% TX-100, 1% glycerol; 6 mM beta-mercaptoethanol and protease inhibitors. The lysate was clarified by centrifugation and was loaded onto a Ni-Sepharose column. The column was washed with 50 mM NaPhosphate pH=8; 300 mM NaCl; 15 mM imidazole; 1% glycerol; and 6 mM beta-mercaptoethanol. His-Tpl2 was eluted with 50 mM NaPhosphate pH=8; 300 mM NaCl; 250 mM imidazole; 1% glycerol; and 6 mM beta-mercaptoethanol. The eluted protein was further purified by size exclusion chromatography. Fractions corresponding to monomeric Tpl2 were then used in the assay.
Tpl2/Cot activity was directly assayed using GST-MEK1 as a substrate. GST-MEK1 phosphorylation on serine residues 217 and 221 was detected by ELISA. 0.4 nM Tpl2 was incubated with 35 nM GST-MEK1 in a kinase reaction buffer containing 20 mM MOPS pH=7.2; 50 uM ATP; 20 mM MgCl2; 1 mM DTT; 25 mM β-glycerophosphate; 5 mM EGTA; and 1 mM sodium orthovanadate for 1 h at 30° C. The compounds of the inventions solubilized in 100% DMSO were pre-diluted in assay buffer so that the final concentration of DMSO in the reaction was 1%. The kinase reaction was carried out in 100 ul volume on 96 well plates. The kinase reaction was then stopped with the addition of 100 mM EDTA. […] After a 1 hour incubation at room temperature, the detection plate was washed 4 times with TBST (TBS+0.05% Tween 20) and then incubated for another hour at room temperature with anti phospho-MEK1 antibody (Cell Signaling) 1:1000 in 10 mM MOPS 7.5; 150 mM NaCl; 0.05% Tween 20; 0.1% Gelatin; 0.02% NaN3; and 1% BSA. The detection plate was washed again and incubated for 30 min with DELFIA Europium (Eu) labeled goat anti-rabbit IgG (Perkin-Elmer), 1:4000 in the same buffer used for the primary incubation. After a final wash, Eu detection solution was added to each well and the Eu signal was measured in a Wallac Victor^2 Multilabel Counter. IC50 calculations were preformed using the XLfit software package (IDBS, Guildford, UK).
For orientation: ELISA stands for enzyme-linked immunosorbent assay.
In the case of `COc1ccc(CNc2cc3c(Nc4cccc(C(C)C)c4)c(C#N)cnc3cn2)cc1` [Example 38, 4-[(3-isopropylphenyl)amino]-6-[(4-methoxybenzyl)amino]-1,7-naphthyridine-3-carbonitrile], the IC50 was greater than 40 µM.

`N#Cc1cnc2cnc(OCCN3CCOCC3)cc2c1Nc1ccc(F)c(Cl)c1` [Example 39, 4-[(3-chloro-4-fluorophenyl)amino]-6-(2-morpholin-4-ylethoxy)-1,7-naphthyridine-3-carbonitrile] showed an IC50 greater than 40 µM.

The molecule `N#Cc1cnc2cnc(NCCN3CCOCC3)cc2c1Nc1ccc(Oc2ccccc2)cc1` [Example 41, 6-[(2-morpholin-4-ylethyl)amino]-4-[(4-phenoxyphenyl)amino]-1,7-naphthyridine-3-carbonitrile] showed an IC50 of 0.3 µM.

Regarding `CC(C)c1ccc(Nc2c(C#N)cnc3cnc(NCCN4CCOCC4)cc23)cc1` [Example 43, 4-[(4-isopropylphenyl)amino]-6-[(2-morpholin-4-ylethyl)amino]-1,7-naphthyridine-3-carbonitrile], the IC50 was greater than 40 µM.

For the molecule `N#Cc1cnc2cnc(NCCN3CCOCC3)cc2c1Nc1ccc2[nH]ccc2c1` [Example 44, 4-(1H-indol-5-ylamino)-6-[(2-morpholin-4-ylethyl)amino]-1,7-naphthyridine-3-carbonitrile], the IC50 is greater than 40 µM.

On to `CN1CCN(CCCNc2cc3c(Nc4ccc(F)c(Cl)c4)c(C#N)cnc3cn2)CC1` [Example 45, 4-[(3-chloro-4-fluorophenyl)amino]-6-{[3-(4-methylpiperazin-1-yl)propyl]amino}-1,7-naphthyridine-3-carbonitrile], for which the IC50 was found to be 20 µM.

Take `N#Cc1cnc2cnc(NCc3ccccc3)cc2c1Nc1ccc(F)c(Cl)c1` [Example 47, 6-(benzylamino)-4-[(3-chloro-4-fluorophenyl)amino]-1,7-naphthyridine-3-carbonitrile]: the IC50 worked out at 0.1 µM.

As to `CN(C)CCCNc1cc2c(Nc3ccc(F)c(Cl)c3)c(C#N)cnc2cn1` [Example 48, 4-[(3-chloro-4-fluorophenyl)amino]-6-{[3-(dimethylamino)propyl]amino}-1,7-naphthyridine-3-carbonitrile], the IC50 was determined as 5 µM.

`N#Cc1cnc2cnc(NCCCN3CCOCC3)cc2c1Nc1ccc(F)c(Cl)c1` [Example 49, 4-[(3-chloro-4-fluorophenyl)amino]-6-[(3-morpholin-4-ylpropyl)amino]-1,7-naphthyridine-3-carbonitrile] came in with an IC50 of 3 µM.

`CC[C@@H](Nc1cc2c(Nc3ccc(F)c(Cl)c3)c(C#N)cnc2cn1)c1ccccc1` [Example 51, 4-[(3-chloro-4-fluorophenyl)amino]-6-{[(1R)-1-phenylpropyl]amino}-1,7-naphthyridine-3-carbonitrile] registered an IC50 of 0.41 µM.

As to `C[C@@H](Nc1cc2c(Nc3ccc(F)c(Cl)c3)c(C#N)cnc2cn1)[C@@H](O)c1ccccc1` [Example 53, 4-[(3-chloro-4-fluorophenyl)amino]-6-{[(1R, 2S)-2-hydroxy-1-methyl-2-phenylethyl]amino}-1,7-naphthyridine-3-carbonitrile], the IC50 turned out to be 7 µM.

Regarding `C[C@H](Nc1cc2c(Nc3ccc(F)c(Cl)c3)c(C#N)cnc2cn1)[C@H](O)c1ccccc1` [Example 54, 4-[(3-chloro-4-fluorophenyl)amino]-6-{[(1S, 2R)-2-hydroxy-1-methyl-2-phenylethyl]amino}-1,7-naphthyridine-3-carbonitrile], half-maximal inhibition (IC50) required 1.3 µM.

Take `C[C@@H](O)CNc1cc2c(Nc3ccc(F)c(Cl)c3)c(C#N)cnc2cn1` [Example 55, 4-[(3-chloro-4-fluorophenyl)amino]-6-{[(2R)-2-hydroxypropyl]amino}-1,7-naphthyridine-3-carbonitrile]: half-maximal inhibition (IC50) required 1.5 µM.

`C[C@H](O)CNc1cc2c(Nc3ccc(F)c(Cl)c3)c(C#N)cnc2cn1` [Example 56, 4-[(3-chloro-4-fluorophenyl)amino]-6-{[(2S)-2-hydroxypropyl]amino}-1,7-naphthyridine-3-carbonitrile] returned an IC50 of 3.6 µM.

Turning to `C[C@H](Nc1cc2c(Nc3ccc(F)c(Cl)c3)c(C#N)cnc2cn1)c1ccccc1` [Example 57, 4-[(3-chloro-4-fluorophenyl)amino]-6-{[(1S)-1-phenylethyl]amino}-1,7-naphthyridine-3-carbonitrile], the IC50 stood at 36 µM.

`N#Cc1cnc2cnc(N[C@H](CN3CCOCC3)c3ccccc3)cc2c1Nc1ccc(F)c(Cl)c1` [Example 58, 4-[(3-chloro-4-fluorophenyl)amino]-6-{[(1S)-2-morpholin-4-yl-1-phenylethyl]amino}-1,7-naphthyridine-3-carbonitrile] registered an IC50 of 3.7 µM.

For `C[C@@H](Nc1cc2c(Nc3ccc(F)c(Cl)c3)c(C#N)cnc2cn1)c1ccccc1` [Example 59, 4-[(3-chloro-4-fluorophenyl)amino]-6-{[(1R)-1-phenylethyl]amino}-1,7-naphthyridine-3-carbonitrile], the IC50 amounted to 0.012 µM.

As to `N#Cc1cnc2cnc(NC(CN3CCOCC3)c3ccccc3)cc2c1Nc1ccc(F)c(Cl)c1` (stereo not shown) [Example 60, 4-[(3-chloro-4-fluorophenyl)amino]-6-[(2-morpholin-4-yl-1-phenylethyl)amino]-1,7-naphthyridine-3-carbonitrile], inhibition was half-maximal at 2.4 µM (IC50).

In turn, `N#Cc1cnc2cnc(NCc3c(N)cccc3F)cc2c1Nc1ccc(F)c(Cl)c1` [Example 61, 6-[(2-amino-6-fluorobenzyl)amino]-4-[(3-chloro-4-fluorophenyl)amino]-1,7-naphthyridine-3-carbonitrile] displayed an IC50 of 10.5 µM.

`N#Cc1cnc2cnc(NCc3cccnc3)cc2c1Nc1ccc(Cl)c(Cl)c1` [Example 63, 4-[(3,4-dichlorophenyl)amino]-6-[(pyridin-3-ylmethyl)amino]-1,7-naphthyridine-3-carbonitrile] returned an IC50 greater than 40 µM.

Molecule `Cc1ccc(Nc2c(C#N)cnc3cnc(NCCN4CCOCC4)cc23)cc1Br` [Example 64, 4-[(3-bromo-4-methylphenyl)amino]-6-[(2-morpholin-4-ylethyl)amino]-1,7-naphthyridine-3-carbonitrile] yielded an IC50 greater than 40 µM.

`Cc1ccc(Nc2c(C#N)cnc3cnc(N[C@H](C)c4ccccc4)cc23)cc1Br` [Example 65] showed an IC50 of 6.2 µM.

Turning to `Cc1ccc(Nc2c(C#N)cnc3cnc(NCc4cccnc4)cc23)cc1Br` [Example 66, 4-[(3-bromo-4-methylphenyl)amino]-6-[(pyridine-3-ylmethyl)amino]-1,7-naphthyridine-3-carbonitrile], the IC50 is greater than 40 µM.

`N#Cc1cnc2cnc(NCCN3CCOCC3)cc2c1Nc1cc(Cl)cc(Cl)c1` [Example 67, 4-[(3,5-dichlorophenyl)amino]-6-[(2-morpholin-4-ylethyl)amino]-1,7-naphthyridine-3-carbonitrile] had an IC50 of 4.2 µM.

Molecule `C[C@@H](Nc1cc2c(Nc3cc(Cl)cc(Cl)c3)c(C#N)cnc2cn1)c1ccccc1` [Example 68] registered an IC50 of 0.94 µM.

Turning to `N#Cc1cnc2cnc(NCc3cccnc3)cc2c1Nc1cc(Cl)cc(Cl)c1` [Example 69, 4-[(3,5-dichlorophenyl)amino]-6-[(pyridin-3-ylmethyl)amino]-1,7-naphthyridine-3-carbonitrile], 4.1 µM corresponded to half-maximal inhibition (IC50).

Take `N#Cc1cnc2cnc(N[C@@H]3CCCc4ccccc43)cc2c1Nc1ccc(F)c(Cl)c1` [Example 70]: the IC50 worked out at 1.5 µM.

The molecule `N#Cc1cnc2cnc(N[C@H]3CCCc4ccccc43)cc2c1Nc1ccc(F)c(Cl)c1` [Example 71] had an IC50 of 3.9 µM.

For the molecule `N#Cc1cnc2cnc(N[C@H]3CCc4ccccc43)cc2c1Nc1ccc(F)c(Cl)c1` [Example 72], the midpoint of inhibition, the IC50, lay at 1.5 µM.

In turn, `N#Cc1cnc2cnc(N[C@@H]3CCc4ccccc43)cc2c1Nc1ccc(F)c(Cl)c1` [Example 73] came in with an IC50 of 0.43 µM.

As to `CCN1CCC[C@H]1CNc1cc2c(Nc3ccc(F)c(Cl)c3)c(C#N)cnc2cn1` [Example 74], 0.18 µM corresponded to half-maximal inhibition (IC50).

Consider `CCN1CCC[C@@H]1CNc1cc2c(Nc3ccc(F)c(Cl)c3)c(C#N)cnc2cn1` [Example 75], for which the IC50 worked out at 7 µM.

In turn, `N#Cc1cnc2cnc(NCCN3CCOCC3)cc2c1Nc1cccc(I)c1` [Example 78, 4-(3-iodophenylamino)-6-(2-morpholinoethylamino)-1,7-naphthyridine-3-carbonitrile] showed an IC50 of 7.1 µM.

The molecule `CC#Cc1cccc(Nc2c(C#N)cnc3cnc(NCCN4CCOCC4)cc23)c1` [Example 79, 6-(2-morpholinoethylamino)-4-(3-(prop-1-ynyl)phenylamino)-1,7-naphthyridine-3-carbonitrile] registered an IC50 greater than 10 µM.
